Source: ChEMBL document CHEMBL5108032, “Innovation Experiences from Africa-Led Drug Discovery at the Holistic Drug Discovery and Development (H3D) Centre” (ACS Med Chem Lett, 2022)
In brackets after ≈: the same amount, converted by molar mass.

Test system: Mycobacterium tuberculosis
Test: Antimycobacterial activity against Mycobacterium tuberculosis H37Rv assessed as inhibition of visible growth incubated for 7 days
Type: functional
Details: 168 h, time 7 day

Molecule Cc1nnc(-c2noc3c(F)c4c(cc23)CC2(C(=O)NC(=O)NC2=O)[C@H]2[C@H](C)O[C@H](C)CN42)o1 has an MIC of 1.7 µM (≈ 0.8 µg/mL).
